Here are results for 1 compound from US5096923A, “Novel squalene synthetase inhibitors” (Merck & Co., Inc., priority 1990, dated 1992).

In brackets after ≈: the same amount, converted by molar mass. Bounds are passed on as bounds.

For one experiment, the target named is T1, Squalene Synthetase (Rattus norvegicus, UniProt Q02769).
T1 construct: The livers from these rats were homogenized in 5 volumes (ml/g) of ice cold 50 mM HEPES; from tissue; host or cells: rat liver microsomes (male Charles River CD rats fed 0.1% lovastatin for 4 days)
T1 sequence (Q02769 1-416): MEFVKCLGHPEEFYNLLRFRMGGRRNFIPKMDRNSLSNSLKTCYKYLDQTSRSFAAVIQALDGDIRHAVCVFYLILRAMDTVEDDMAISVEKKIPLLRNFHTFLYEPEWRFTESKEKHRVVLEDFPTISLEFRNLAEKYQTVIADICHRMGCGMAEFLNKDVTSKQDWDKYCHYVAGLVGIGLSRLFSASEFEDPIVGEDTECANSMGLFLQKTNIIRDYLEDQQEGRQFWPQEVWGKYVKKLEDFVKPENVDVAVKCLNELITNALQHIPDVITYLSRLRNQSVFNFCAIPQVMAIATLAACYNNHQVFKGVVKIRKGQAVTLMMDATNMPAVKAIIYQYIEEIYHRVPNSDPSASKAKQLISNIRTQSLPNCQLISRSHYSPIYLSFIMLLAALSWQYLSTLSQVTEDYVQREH
The experiment can be described thus: Squalene synthetase assay (rat liver microsomes, [4-14C]farnesyl-pyrophosphate). The experiment is classed as biochemical. The settings on record: 30° C., 20 minutes, read-out: Squalene Synthetase ID50. A general note: Microsomes from liver hold many membrane-bound enzymes, among them those of drug oxidation.

Another experiment has as its system A. fumigatus MF4839. Nature of the experiment: Antifungal microtiter inhibitor dilution assay (filamentous fungi), A. fumigatus. As to conditions: Aspergillus fumigatus, 42 hours, 28° C., read-out: Minimum Inhibitory Concentration. The class given is cell-based. As to the method: (§1) The compounds are particularly active towards filamentous fungi and yeasts including Candida albicans and Crypt neoformans. The sensitivity of filamentous fungi and yeast was determined using inhibitor dilution assays in microtiter format. The compounds were dissolved in DMSO at 2 mg/ml and serially diluted in 0.1M phosphate buffer, pH 7.0 in the microtiter dish from 100 to 0.006 μg/ml. A standardized spore suspension for testing the filamentous fungi was prepared by inoculating Antibiotic Medium #3 containing 1.5% agar with spores such that 1.5×10^3 colony forming units were added per well. The microtiter wells were filled with 50 μl of buffer containing compound and 50 μl of inoculated medium. The sensitivity of yeasts was determined by inoculating yeast nitrogen base containing 1% dextrose (YNB/G) with aliquots of an overnight yeast culture grown in yeast morphology (YM) media at 35° C. and diluting in YNB/G to yield a final concentration of 1.5-7.5×10^3 colony forming units/well. One hundred fifty μl of inoculated media was added per well. To test the sensitivity of yeast, compound was solubilized in 10 percent aqueous DMSO at 2.56 mg/ml. The compound was diluted serially in YNB/G from 128 to 0.06 μg/ml. The wells were filled with 150 μl of drug containing media. […]

A further experiment has as its system A. niger MF442. The experiment can be described thus: Antifungal microtiter inhibitor dilution assay (filamentous fungi), A. niger. The class given is cell-based. The settings on record: Aspergillus niger, 42 hours, 28° C., read-out: Minimum Inhibitory Concentration. As for the experimental part: as §1
For another experiment, the system named is Fus. oxysporum MF4014. The experiment can be described thus: Antifungal microtiter inhibitor dilution assay (filamentous fungi), Fus. oxysporum. The class given is cell-based. As to conditions: Fusarium oxysporum, 42 hours, 28° C., read-out: Minimum Inhibitory Concentration. As to the method:
as §1

The next experiment deals with C. tropicalis MY1012. Nature of the experiment: Antifungal microtiter inhibitor dilution assay (yeast), C. tropicalis. As to conditions: Candida tropicalis, 24 hours, 28° C., read-out: Minimum Inhibitory Concentration. The experiment is classed as cell-based. As to the method: as §1
In another experiment the test system is C. parapsilosis MY1010. The experiment can be described thus: Antifungal microtiter inhibitor dilution assay (yeast), C. parapsilosis. The experiment is classed as cell-based. As to conditions: Lodderomyces parapsilosis, 24 hours, 28° C., read-out: Minimum Inhibitory Concentration. As for the experimental part: as §1
A further experiment concerns Pen. italicum MF2819. The experiment can be described thus: Antifungal microtiter inhibitor dilution assay (filamentous fungi), Pen. italicum. The class given is cell-based. As to conditions: Penicillium italicum, 42 hours, 28° C., read-out: Minimum Inhibitory Concentration. As to the method:
as §1

Another experiment deals with Crypt. neoformans MY1051. Nature of the experiment: Antifungal microtiter inhibitor dilution assay (yeast), Crypt. neoformans. The class given is cell-based. As to conditions: Cryptococcus neoformans, 24 hours, 28° C., read-out: Minimum Inhibitory Concentration. As for the experimental part:
as §1

A further experiment has as its system Coch. miyabeanus MF4626. The experiment can be described thus: Antifungal microtiter inhibitor dilution assay (filamentous fungi), Coch. miyabeanus. The class given is cell-based. As to conditions: Bipolaris oryzae, MF4626, 42 h, read-out: Minimum Inhibitory Concentration. As for the experimental part:
as §1

For the next experiment, the system named is C. albicans MY1055. The experiment can be described thus: Antifungal microtiter inhibitor dilution assay (yeast), C. albicans. The class given is cell-based. The settings on record: Candida albicans, 24 hours, 28° C., read-out: Minimum Inhibitory Concentration. As for the experimental part: as §1
The test system of the next experiment is A. flavus MF383. The experiment can be described thus: Antifungal microtiter inhibitor dilution assay (filamentous fungi), A. flavus. The experiment is classed as cell-based. As to conditions: Aspergillus flavus, 42 hours, 28° C., read-out: Minimum Inhibitory Concentration. As to the method:
as §1

Description for Squalene Synthetase: The intrinsic squalene synthetase inhibitory activity of representative compounds of this invention was measured by the standard in vitro protocol described below:
Male, Charles River CD rats (120 to 150 g) were fed a diet containing 0.1% lovastatin for 4 days. The livers from these rats were homogenized in 5 volumes (ml/g) of ice cold 50 mM HEPES (4-(2 -hydroxyethyl)-1-piperazine-ethanesulfonic acid), 5 mM EDTA(ethylenediaminetetraacetic acid) pH 7.5 with a Potter-Elvehjem type tissue grinder. The homogenate was centrifuged twice at 20,000×g for 15 minutes at 4° C., discarding the pellet each time. The supernatant was then centrifuged at 100,000×g for 1 hour at 4° C. The resulting microsomal pellet was resuspended in a volume of the above homogenizing buffer equal to one-fifth the volume of the original homogenate. This microsomal preparation has a protein concentration of about 7 mg/ml. The microsomal suspensions were stored in aliquots at -70° C. Squalene synthetase activity in these aliquots is stable for at least several months.
Prenyl transferase was purified to use in the enzymatic synthesis of radiolabelled farnesyl pyrophosphate. Prenyl transferase was assayed by the method of Rilling (Methods in Enzymology 110, 125-129 (1985)) and a unit of activity is defined as the amount of enzyme that will produce 1 μmole of farnesyl pyrophosphate per minute at 30° C. in the standard assay. […]

As for `C=C(CCC12OC(C(=O)OC)C(O)(C(=O)OC)C(C(=O)OC)(O1)C(OC(=O)C=CC(C)CC(C)CC)C2O)C(OC(C)=O)C(C)Cc1ccccc1` (centres unmarked) [Compound B], on Squalene Synthetase, the IC50 worked out at 5 µM. Moreover, the MIC with A. fumigatus MF4839 is 6.2 µg/mL (≈ 8.46 µM); with A. niger MF442, 25 µg/mL (≈ 34.1 µM); in the experiment with Fus. oxysporum MF4014 it was more than 100 µg/mL; in the experiment on C. tropicalis MY1012, 4 µg/mL (≈ 5.46 µM); with C. parapsilosis MY1010, 8 µg/mL (≈ 10.9 µM); in the experiment on Pen. italicum MF2819 it was 6.2 µg/mL (≈ 8.46 µM). The MIC in the experiment with Crypt. neoformans MY1051 amounted to 1 µg/mL (≈ 1.36 µM); with Coch. miyabeanus MF4626, 1.6 µg/mL (≈ 2.18 µM); in the experiment with C. albicans MY1055, 8 µg/mL (≈ 10.9 µM); in the experiment on A. flavus MF383 it was 6.2 µg/mL (≈ 8.46 µM).
